Compound in one assay: NC(=O)CCCCC1CCSS1 [lipoamide]
Kind of assay: thermal stability z-score vs DMSO; higher = more thermally stabilized by treatment. Particulars: HeLa, lipoamide concentration 100 µM. The procedure: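 Cellular thermal proteome profiling in HeLa cells. Cells were treated with 100 µM lipoamide for 1 h, with or without 1 mM arsenate for a further 1 h, then heated to ten temperatures (37-66.3 °C), and soluble protein was quantified by TMT mass spectrometry relative to 0.1% DMSO controls. The thermal stability score (sum of log2 fold changes minus the abundance score) was transformed to a z-score; mean of n = 3 experiments.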

Compound in another assay: O=[As]([O-])(O)O.[K+] [potassium arsenate]
Described as above. As to conditions: HeLa; arsenate concentration 1 mM. The procedure:
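Cellular thermal proteome profiling in HeLa cells treated with 1 mM arsenate for 1 h (DMSO pretreatment), heated to ten temperatures (37-66.3 °C). Soluble protein was quantified by TMT mass spectrometry relative to DMSO controls; the thermal stability score was transformed to a z-score; mean of n = 3 experiments.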

Setting [1] is: arsenate co-treatment: 1 mM arsenate 1 h.
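Further: each temperature applied for 3 min, abundance score taken as mean log2 fold change at the two lowest temperatures, z-score obtained by mean subtraction and division by SD.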

UniProt Q9Y5J1, sequence (Q9Y5J1 whole entry): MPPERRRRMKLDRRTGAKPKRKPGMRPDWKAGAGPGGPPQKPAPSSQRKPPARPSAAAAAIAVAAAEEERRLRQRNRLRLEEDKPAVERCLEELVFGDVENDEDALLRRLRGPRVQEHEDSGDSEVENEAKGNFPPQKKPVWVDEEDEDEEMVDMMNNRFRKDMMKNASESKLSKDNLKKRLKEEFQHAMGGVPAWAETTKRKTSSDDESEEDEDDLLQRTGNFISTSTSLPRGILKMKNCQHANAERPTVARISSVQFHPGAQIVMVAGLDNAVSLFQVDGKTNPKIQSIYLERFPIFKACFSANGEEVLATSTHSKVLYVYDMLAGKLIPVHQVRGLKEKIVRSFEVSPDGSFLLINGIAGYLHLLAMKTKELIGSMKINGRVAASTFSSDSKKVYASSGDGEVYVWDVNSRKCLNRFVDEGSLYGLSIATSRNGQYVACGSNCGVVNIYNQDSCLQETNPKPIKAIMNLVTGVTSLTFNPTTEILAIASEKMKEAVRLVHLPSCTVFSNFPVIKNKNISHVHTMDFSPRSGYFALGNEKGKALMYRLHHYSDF
UniProt Q96CP2, sequence (Q96CP2 whole entry): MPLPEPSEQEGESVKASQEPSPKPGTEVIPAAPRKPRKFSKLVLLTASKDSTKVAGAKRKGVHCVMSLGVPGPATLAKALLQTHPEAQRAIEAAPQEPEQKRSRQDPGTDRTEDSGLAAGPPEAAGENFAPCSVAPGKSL
UniProt Q9UBP0, sequence (Q9UBP0 whole entry): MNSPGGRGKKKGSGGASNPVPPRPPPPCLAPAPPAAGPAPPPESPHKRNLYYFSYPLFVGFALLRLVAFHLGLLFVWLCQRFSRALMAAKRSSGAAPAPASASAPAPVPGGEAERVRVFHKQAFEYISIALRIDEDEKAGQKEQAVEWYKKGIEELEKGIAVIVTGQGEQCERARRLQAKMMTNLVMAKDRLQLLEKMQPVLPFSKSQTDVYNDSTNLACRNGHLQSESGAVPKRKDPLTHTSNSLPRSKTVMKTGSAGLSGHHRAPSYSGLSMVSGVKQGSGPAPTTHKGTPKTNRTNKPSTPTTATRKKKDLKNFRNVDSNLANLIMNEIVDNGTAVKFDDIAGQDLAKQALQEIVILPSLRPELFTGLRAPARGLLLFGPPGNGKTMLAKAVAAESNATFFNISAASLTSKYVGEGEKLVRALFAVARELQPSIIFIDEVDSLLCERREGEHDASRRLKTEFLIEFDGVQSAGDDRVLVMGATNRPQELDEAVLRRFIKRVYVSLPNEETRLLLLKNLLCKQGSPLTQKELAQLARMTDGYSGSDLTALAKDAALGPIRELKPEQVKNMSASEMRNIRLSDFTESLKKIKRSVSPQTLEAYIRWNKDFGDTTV
UniProt Q5VT52, sequence (Q5VT52 whole entry): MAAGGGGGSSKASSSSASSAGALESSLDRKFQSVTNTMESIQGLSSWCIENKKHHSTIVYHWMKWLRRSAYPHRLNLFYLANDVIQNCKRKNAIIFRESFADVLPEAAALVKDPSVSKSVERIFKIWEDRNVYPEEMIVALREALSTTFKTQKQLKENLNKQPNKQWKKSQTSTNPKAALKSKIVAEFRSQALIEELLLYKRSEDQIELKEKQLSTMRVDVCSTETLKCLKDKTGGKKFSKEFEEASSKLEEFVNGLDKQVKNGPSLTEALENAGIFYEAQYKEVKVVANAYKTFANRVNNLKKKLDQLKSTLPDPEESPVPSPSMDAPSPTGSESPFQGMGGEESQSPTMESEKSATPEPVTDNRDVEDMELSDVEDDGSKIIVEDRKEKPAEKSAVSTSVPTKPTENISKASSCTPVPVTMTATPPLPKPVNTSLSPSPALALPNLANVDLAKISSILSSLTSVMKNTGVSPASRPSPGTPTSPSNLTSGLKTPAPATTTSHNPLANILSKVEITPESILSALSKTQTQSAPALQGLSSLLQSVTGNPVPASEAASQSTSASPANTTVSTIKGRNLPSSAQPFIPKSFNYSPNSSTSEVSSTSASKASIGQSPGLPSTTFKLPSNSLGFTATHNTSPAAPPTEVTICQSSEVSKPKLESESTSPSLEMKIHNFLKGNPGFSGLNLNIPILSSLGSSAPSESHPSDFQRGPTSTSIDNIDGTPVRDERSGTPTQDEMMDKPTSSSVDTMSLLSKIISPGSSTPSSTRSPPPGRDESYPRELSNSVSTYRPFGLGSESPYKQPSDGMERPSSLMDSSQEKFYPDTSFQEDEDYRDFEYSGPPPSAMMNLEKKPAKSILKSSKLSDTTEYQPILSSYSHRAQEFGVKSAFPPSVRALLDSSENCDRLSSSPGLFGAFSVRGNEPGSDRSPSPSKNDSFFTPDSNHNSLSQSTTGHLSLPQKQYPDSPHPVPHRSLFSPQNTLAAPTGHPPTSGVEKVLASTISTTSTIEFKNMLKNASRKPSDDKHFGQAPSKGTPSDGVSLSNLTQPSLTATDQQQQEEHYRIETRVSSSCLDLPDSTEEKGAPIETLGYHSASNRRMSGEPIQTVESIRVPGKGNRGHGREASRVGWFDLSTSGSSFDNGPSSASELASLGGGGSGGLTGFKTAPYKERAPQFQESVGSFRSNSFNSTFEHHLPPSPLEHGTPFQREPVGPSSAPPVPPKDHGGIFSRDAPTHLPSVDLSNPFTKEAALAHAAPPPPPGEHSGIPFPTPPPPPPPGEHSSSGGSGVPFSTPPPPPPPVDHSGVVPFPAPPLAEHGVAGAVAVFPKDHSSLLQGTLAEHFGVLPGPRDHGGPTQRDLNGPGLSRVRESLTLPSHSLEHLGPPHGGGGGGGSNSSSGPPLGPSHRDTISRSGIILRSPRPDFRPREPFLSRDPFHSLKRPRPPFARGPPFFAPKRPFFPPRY
UniProt P04818, sequence (P04818 whole entry, looked up): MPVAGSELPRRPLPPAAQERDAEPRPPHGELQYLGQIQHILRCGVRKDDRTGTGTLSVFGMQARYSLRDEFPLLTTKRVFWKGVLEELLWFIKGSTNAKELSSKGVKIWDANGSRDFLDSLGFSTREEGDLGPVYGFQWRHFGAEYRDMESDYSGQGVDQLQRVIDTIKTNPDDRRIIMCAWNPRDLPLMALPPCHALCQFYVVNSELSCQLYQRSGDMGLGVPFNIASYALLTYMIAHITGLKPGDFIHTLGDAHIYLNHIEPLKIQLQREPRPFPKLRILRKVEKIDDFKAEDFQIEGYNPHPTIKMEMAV
UniProt O75718, sequence (O75718 whole entry): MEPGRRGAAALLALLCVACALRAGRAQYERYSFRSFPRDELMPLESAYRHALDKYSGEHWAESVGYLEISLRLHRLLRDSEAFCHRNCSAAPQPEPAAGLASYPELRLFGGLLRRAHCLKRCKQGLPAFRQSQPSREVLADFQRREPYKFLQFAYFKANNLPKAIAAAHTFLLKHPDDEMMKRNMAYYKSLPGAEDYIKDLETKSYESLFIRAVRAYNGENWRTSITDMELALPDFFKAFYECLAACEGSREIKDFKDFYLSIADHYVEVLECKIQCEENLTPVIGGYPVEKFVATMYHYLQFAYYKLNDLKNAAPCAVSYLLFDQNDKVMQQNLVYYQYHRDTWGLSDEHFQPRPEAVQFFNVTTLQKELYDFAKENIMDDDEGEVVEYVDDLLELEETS
UniProt O60884, sequence (O60884 whole entry): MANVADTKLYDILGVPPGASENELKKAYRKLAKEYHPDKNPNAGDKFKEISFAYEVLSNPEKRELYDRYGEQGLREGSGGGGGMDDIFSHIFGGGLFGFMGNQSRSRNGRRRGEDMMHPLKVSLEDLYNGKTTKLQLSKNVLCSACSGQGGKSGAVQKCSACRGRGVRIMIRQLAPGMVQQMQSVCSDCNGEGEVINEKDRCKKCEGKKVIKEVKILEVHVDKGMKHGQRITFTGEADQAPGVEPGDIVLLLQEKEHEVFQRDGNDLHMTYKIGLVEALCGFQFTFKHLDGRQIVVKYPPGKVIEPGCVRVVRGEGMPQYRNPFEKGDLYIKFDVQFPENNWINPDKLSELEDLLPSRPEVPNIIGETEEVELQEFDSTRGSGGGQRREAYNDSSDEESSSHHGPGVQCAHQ
UniProt P08621, sequence (P08621 whole entry): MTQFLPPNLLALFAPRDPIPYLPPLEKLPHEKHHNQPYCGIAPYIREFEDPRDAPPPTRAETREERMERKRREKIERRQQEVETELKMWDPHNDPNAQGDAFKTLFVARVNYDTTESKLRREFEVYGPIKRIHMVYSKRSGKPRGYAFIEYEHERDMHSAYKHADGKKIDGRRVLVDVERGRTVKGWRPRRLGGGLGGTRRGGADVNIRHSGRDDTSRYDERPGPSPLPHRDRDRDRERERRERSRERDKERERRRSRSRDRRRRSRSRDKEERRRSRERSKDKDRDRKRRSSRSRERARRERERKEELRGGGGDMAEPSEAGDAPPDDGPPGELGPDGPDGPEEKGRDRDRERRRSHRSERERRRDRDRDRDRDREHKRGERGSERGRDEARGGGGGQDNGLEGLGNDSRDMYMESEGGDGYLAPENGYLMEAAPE
UniProt Q13162, sequence (Q13162 whole entry): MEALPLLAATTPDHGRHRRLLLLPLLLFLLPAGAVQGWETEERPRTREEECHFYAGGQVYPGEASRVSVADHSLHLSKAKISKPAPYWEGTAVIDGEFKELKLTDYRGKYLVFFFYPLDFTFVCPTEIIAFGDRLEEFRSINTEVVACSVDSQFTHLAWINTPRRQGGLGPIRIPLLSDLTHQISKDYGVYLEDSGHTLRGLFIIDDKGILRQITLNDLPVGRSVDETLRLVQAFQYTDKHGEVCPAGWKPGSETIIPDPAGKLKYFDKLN
UniProt Q96FJ2, sequence (Q96FJ2 whole entry): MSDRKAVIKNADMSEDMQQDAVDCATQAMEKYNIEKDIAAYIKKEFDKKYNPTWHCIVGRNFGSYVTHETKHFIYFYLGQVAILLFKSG
UniProt Q9Y508, sequence (Q9Y508 whole entry): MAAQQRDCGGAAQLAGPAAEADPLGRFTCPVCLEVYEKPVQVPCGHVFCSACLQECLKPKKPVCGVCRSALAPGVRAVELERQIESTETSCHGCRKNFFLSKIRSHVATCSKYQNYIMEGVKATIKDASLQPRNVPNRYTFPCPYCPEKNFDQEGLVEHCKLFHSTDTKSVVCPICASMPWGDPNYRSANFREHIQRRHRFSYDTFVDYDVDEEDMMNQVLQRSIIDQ

For the target MDC1 (UniProt Q14676), the thermal stability z-score in the assay with lipoamide (setting [1]) is 0.374; with lipoamide (arsenate co-treatment: none), 0.00253; in the assay with potassium arsenate it was -0.363.
For RNF114 (UniProt Q9Y508), in that order: -0.534, -0.407 and -1.6.
Regarding HIBCH (UniProt Q6NVY1), the thermal stability z-score was 0.0376 with lipoamide (setting [1]), -0.171 with lipoamide (arsenate co-treatment: none) and -0.476 in the assay with potassium arsenate.
For NUF2 (UniProt Q9BZD4), in that order: -0.884, -0.901 and 2.02.
On the same counts, the results for SPAST (UniProt Q9UBP0) are -0.179, 0.818 and 0.604.
With RPS4X (UniProt P62701), the figures for the thermal stability z-score in the assay with lipoamide (setting [1]), in the assay with lipoamide (arsenate co-treatment: none) and with potassium arsenate were 0.35, 0.0222 and -0.997, respectively.
On the same counts, the results for FLYWCH2 (UniProt Q96CP2) are 0.101, 0.222 and 0.0187.
As for DYNLL2 (UniProt Q96FJ2), the thermal stability z-score in the assay with lipoamide (setting [1]) worked out at 0.256; with lipoamide (arsenate co-treatment: none) it was 0.641; in the assay with potassium arsenate, 0.118.
For DNAJA2 (UniProt O60884), in that order: -0.922, -1.05 and -0.26.
On the same counts, the results for UTP18 (UniProt Q9Y5J1) are 0.058, -0.244 and 0.516.
For NHSL1 (UniProt Q5SYE7), in that order: 0.0509, 0.218 and 0.0815.
Regarding CRTAP (UniProt O75718), the thermal stability z-score with lipoamide (setting [1]) is -3.99; with lipoamide (arsenate co-treatment: none), -3.27; with potassium arsenate it was 0.92.
For FLOT1 (UniProt O75955), the thermal stability z-score was 1.38 with lipoamide (setting [1]), 0.653 with lipoamide (arsenate co-treatment: none) and -0.283 with potassium arsenate.
On the same counts, the results for CBL (UniProt P22681) are 0.255, 0.154 and -0.368.
For DPH6 (UniProt Q7L8W6), in that order: -0.187, -0.152 and -0.722.
RNF169 (UniProt Q8NCN4): the thermal stability z-score in the assay with lipoamide (setting [1]) is -0.0589; with lipoamide (arsenate co-treatment: none), 0.0354; with potassium arsenate, -0.0867.
Turning to UniProt H0YIV9|GATC, the results for the thermal stability z-score with lipoamide (setting [1]), with lipoamide (arsenate co-treatment: none) and with potassium arsenate were -0.219, -0.277 and -0.0937, respectively.
On the same counts, the results for TYMS (UniProt P04818) are 1.42, 0.818 and 14.
On the same counts, the results for PRDX4 (UniProt Q13162) are 0.155, 0.76 and 0.674.
On to SNRNP70 (UniProt P08621), for which the figures for the thermal stability z-score in the assay with lipoamide (setting [1]), with lipoamide (arsenate co-treatment: none) and with potassium arsenate were -0.195, -0.247 and -0.58, respectively.
With RPRD2 (UniProt Q5VT52), the thermal stability z-score with lipoamide (setting [1]) amounted to 1.99; in the assay with lipoamide (arsenate co-treatment: none) it was 1.64; with potassium arsenate it was 0.719.
Turning to LRPPRC (UniProt P42704), the figures for the thermal stability z-score with lipoamide (setting [1]), with lipoamide (arsenate co-treatment: none) and with potassium arsenate were -1.08, -0.312 and -0.267, respectively.
In the case of MEAF6 (UniProt Q9HAF1), the thermal stability z-score is 0.687 with lipoamide (setting [1]), -0.0341 in the assay with lipoamide (arsenate co-treatment: none) and -0.821 in the assay with potassium arsenate.

(Values after the supplement of paper PMC12463676, “Small-molecule dissolution of stress granules by redox modulation benefits ALS models” (Nature Chemical Biology, 2025).)
